{
  "source": "patent US20260272924A1",
  "about": "“ISOINDOLINE DERIVATIVE, BENZOINDOLE DERIVATIVE AND USE THEREOF” (SHANGHAI HELIOSON PHARMACEUTICAL CO., LTD., priority 2023, published 2026)",
  "data": [
    {"tested_on": "NCI-H929 multiple myeloma cells", "assay": "Cell Titer-GLO (CTG) assay for proliferation of NCI-H929 cells", "type": "cell-based", "conditions": "Homo sapiens, 72 hours", "experimental": "1. Experimental objective: To determine inhibitory activities of compounds on NCI-H929 multiple myeloma cells.\nNCI-H929 cells, purchased from Nanjing Cobioer Biotechnology Co., Ltd, were cultured in RPM11640 (Viva; C3010-0500) medium containing 10% fetal bovine serum (Viva, C04002-500) and 1% of penicillin-streptomycin at 37° C. with 5% of C02 and saturated humidity conditions.\nThe cells in logarithmic growth phase were plated at 5000 cells per well of a 96-well plate and after overnight incubation, compounds at 0.00512 nM, 0.0256 nM, 0.128 nM, 0.64 nM, 3.2 nM, 16 nM, 80 nM, and 400 nM were dosed into the plate with each dose in 2 duplicate wells. Cells were incubated at 37° C., 5% CO2 for 72 hours. After the incubation, the plate was placed at room temperature for half an hour, and then 50 μL of Cell Titer-Glo® (Promega, G7573) was added. The plate was placed on a shaker for uniform mixing for 2 minutes and was placed in the dark at room temperature for 10 minutes. The luminance signal was measured using SpectraMax Paradigm (Molecular Devices).\nCell activity inhibition rate (%)=1 00−(RLUcompound−RLUblank)/(RLUcontrol−RLUblank)×100%, where control refers to the 0.1% DMSO treatment group, and blank refers to the culture medium control. IC50 values and maximum inhibition rates of the compounds were calculated using a nonlinear regression function “Dose-Response-Inhibition” in Graphpad Prism 7.0.", "units": {"IC50": "pM"}, "values": [
      {"smiles": "O=C1CCC(N2C(=O)c3cccc4c(Cc5ccc(CN6CC(N7CCN(c8cccc(-n9ccnc9)n8)CC7)C6)cc5)ccc2c34)C(=O)N1", "note": "(centres unmarked) [Example 32]", "IC50": "< 5"},
      {"smiles": "O=C1CCC(N2C(=O)c3cccc4c(Cc5ccc(CN6CCN(c7cccc(-n8ccnc8)n7)CC6)cc5)ccc2c34)C(=O)N1", "note": "(centres unmarked) [Example 2, 3-(6-(4-((4-(6-(1H-imidazol-1-yl)pyridin-2-yl)piperazin-1-vi)methyl)benzyl)-2-oxobenzo[cd]indol-1(2H)-yl)piperidin-2,6-dione]", "IC50": 20},
      {"smiles": "O=C1CC[C@H](N2C(=O)c3cccc4c(Cc5ccc(CN6CCN(c7ccnc(-n8cnc(C(F)(F)F)c8)n7)CC6)cc5)ccc2c34)C(=O)N1", "note": "[Example 33, (S)-3-(2-oxo-6-(4-((4-(2-(4-(trifluoromethyl)-1H-imidazol-1-yl)pyrimidin-4-yl)piperazin-1-yl)methyl)benzyl)benzo[cd]indol-1(2H)-yl)piperidin-2,6-dione]", "IC50": 20},
      {"smiles": "Cc1nnc(-c2cccc(N3CCN(Cc4ccc(Cc5ccc6c7c(cccc57)C(=O)N6[C@@H]5CCC(=O)NC5=O)cc4)CC3)n2)s1", "note": "[Example 36, (R)-3-(6-(4-((4-(6-(5-methyl-1,3,4-thiadiazol-2-yl)pyridin-2-yl)piperazin-1-yl)methyl)benzyl)-2-oxobenzo[cd]indol-1(2H)-yl)piperidin-2,6-dione]", "IC50": 20},
      {"smiles": "O=C1CCC(N2C(=O)c3cccc4c(Cc5ccc(CN6CCN(c7ccnc(-c8cncs8)n7)CC6)cc5)ccc2c34)C(=O)N1", "note": "(centres unmarked) [Example 58, 3-(2-oxo-6-(4-((4-(2-(thiazol-5-yl)pyrimidin-4-yl)piperazin-1-yl)methyl)benzyl)benzo[fcd]indol-1(2H)-yl)piperidin-2,6-dione]", "IC50": 30},
      {"smiles": "O=C1CCC(N2C(=O)c3cccc4c(Cc5ccc(CN6CCC(O[C@H]7CC[C@@H](NC(=O)c8cccc(-n9ccnc9)n8)CC7)CC6)cc5)ccc2c34)C(=O)N1", "note": "(some centres unmarked) [Example 27, N-((1s,4s)-4-((1-(4-((1-(2,6-dioxopiperidin-3-yl)-2-oxo-1,2-dihydrobenzo[cd]indol-6-yl)methyl)benzyl)piperidin-4-yl)oxy)cyclohexyl)-6-(1H-imidazol-1-yl)pyridin-2-carboxamide]", "IC50": 100},
      {"smiles": "O=C1CCC(N2C(=O)c3cccc4c(Cc5ccc(CN6CCN(C7CCN(c8ccnc(-n9cnc(C(F)(F)F)c9)n8)CC7)CC6)cc5)ccc2c34)C(=O)N1", "note": "(centres unmarked) [Example 40, 3-(2-oxo-6-(4-((4-(1-(2-(4-(trifluoromethyl)-1H-imidazol-1-yl)pyrimidin-4-yl)piperidin-4-yl)piperazin-1-yl)methyl)benzyl)benzo[cd]indol-1(2H)-yl)piperidin-2,6-dione]", "IC50": 10},
      {"smiles": "Cc1nc(N2CCN(C3CN(Cc4ccc(Cc5ccc6c7c(cccc57)C(=O)N6C5CCC(=O)NC5=O)cc4)C3)CC2)cc(-n2cnc(C(F)(F)F)c2)n1", "note": "(centres unmarked) [Example 54, 3-(6-(4-((3-(4-(2-methyl-6-(4-(trifluoromethyl)-1H-imidazol-1-yl)pyrimidin-4-yl)piperazin-1-yl)azetidin-1-yl)methyl)benzyl)-2-oxobenzo[cd]indol-1(2H)-yl)piperidin-2,6-dione]", "IC50": 4},
      {"smiles": "Cc1cc(C(=O)NC2CCN(Cc3ccc(Cc4ccc5c6c(cccc46)C(=O)N5C4CCC(=O)NC4=O)cc3)CC2)nc(-n2ccnc2)n1", "note": "(centres unmarked) [Example 12, N-(1-(4-((1-(2,6-dioxopiperidin-3-yl)-2-oxo-1,2-dihydrobenzo[cd]indol-6-yl)methyl)benzyl)piperidin-4-yl)-2-(1H-imidazol-1-yl)-6-methylpyrimidin-4-carboxamide]", "IC50": 70},
      {"smiles": "Cc1nc(N2CCN(C3CN(Cc4ccc(Cc5ccc6c7c(cccc57)C(=O)N6C5CCC(=O)NC5=O)cc4)C3)CC2)cc(-n2cnc(C)n2)n1", "note": "(centres unmarked) [Example 48, 3-(6-(4-((3-(4-(2-methyl-6-(3-methyl-1H-1,2,4-triazol-1-yl)pyrimidin-4-yl)piperazin-1-yl)azetidin-1-yl)methyl)benzyl)-2-oxobenzo[cd]indol-1(2H)-yl)piperidin-2,6-dione]", "IC50": 2},
      {"smiles": "Cc1ncn(-c2nc(N3CCN(Cc4ccc(Cc5ccc6c7c(cccc57)C(=O)N6C5CCC(=O)NC5=O)cc4)CC3)cc(C(F)(F)F)n2)n1", "note": "(centres unmarked) [Example 69, 3-(6-(4-((4-(2-(3-methyl-1H-1,2,4-triazol-1-yl)-6-(trifluoromethyl)pyrimidin-4-yl)piperazin-1-yl)methyl)benzyl)-2-oxobenzo[cd]indol-1(2H)-yl)piperidin-2,6-dione]", "IC50": 40},
      {"smiles": "Cc1nc(N2CCN(Cc3ccc(Cc4ccc5c6c(cccc46)C(=O)N5[C@H]4CCC(=O)NC4=O)cc3)CC2)cc(-n2cnc(C)n2)n1", "note": "[Example 46, (S)-3-(6-(4-((4-(2-methyl-6-(3-methyl-1H-1,2,4-triazol-1-yl)pyrimidin-4-yl)piperazin-1-yl)methyl)benzyl)-2-oxobenzo[cd]indol-1(2H)-yl)piperidin-2,6-dione]", "IC50": 10},
      {"smiles": "O=C1CC[C@@H](N2C(=O)c3cccc4c(Cc5ccc(CN6CCN(c7ccnc(-n8cnc(C(F)(F)F)c8)n7)CC6)cc5)ccc2c34)C(=O)N1", "note": "[Example 34, (R)-3-(2-oxo-6-(4-((4-(2-(4-(trifluoromethyl)-1H-imidazol-1-yl)pyrimidin-4-yl)piperazin-1-yl)methyl)benzyl)benzo[cd]indol-1(2H)-yl)piperidin-2,6-dione]", "IC50": 30},
      {"smiles": "Cc1nnc(-c2ncc(F)c(N3CCN(Cc4ccc(Cc5ccc6c7c(cccc57)C(=O)N6C5CCC(=O)NC5=O)cc4)CC3)n2)s1", "note": "(centres unmarked) [Example 42, 3-(6-(4-((4-(5-fluoro-2-(5-methyl-1,3,4-thiadiazol-2-yl)pyrimidin-4-yl)piperazin-1-yl)methyl)benzyl)-2-oxobenzo[cd]indol-1(2H)-yl)piperidin-2,6-dione]", "IC50": 10},
      {"smiles": "Cc1nc(N2CCN(C3CN(Cc4ccc(COc5cccc6c5CN([C@H]5CCC(=O)NC5=O)C6=O)cc4)C3)CC2)cc(-n2cnc(C)n2)n1", "note": "[Example 77, (S)-3-(4-((4-((3-(4-(2-methyl-6-(3-methyl-1H-1,2,4-triazol-1-yl)pyrimidin-4-yl)piperazin-1-yl)azetidin-1-yl)methyl)benzyl)oxy)-1-oxoisoindolin-2-yl)piperidin-2,6-dione]", "IC50": 100},
      {"smiles": "O=C1CCC(N2C(=O)c3cccc4c(Cc5ccc(CN6CCN(c7ccnc(-n8ccnc8C(F)(F)F)n7)CC6)cc5)ccc2c34)C(=O)N1", "note": "(centres unmarked) [Example 13, 3-(2-oxo-6-(4-((4-(2-(2-(trifluoromethyl)-1H-imidazol-1-yl)pyrimidin-4-yl)piperazin-1-yl)methyl)benzyl)benzo[cd]indol-1(2H)-yl)piperidin-2,6-dione]", "IC50": 70},
      {"smiles": "Cc1ncn(-c2nccc(N3CCN(Cc4ccc(Cc5ccc6c7c(cccc57)C(=O)N6C5CCC(=O)NC5=O)cc4)CC3)n2)n1", "note": "(centres unmarked) [Example 41, 3-(6-(4-((4-(2-(3-methyl-1H-1,2,4-triazol-1-yl)pyrimidin-4-yl)piperazin-1-yl)methyl)benzyl)-2-oxobenzo[cd]indol-1(2H)-yl)piperidin-2,6-dione]", "IC50": 6},
      {"smiles": "O=C1CC[C@H](N2Cc3c(OCc4ccc(CN5CCN(CC6CCN(c7cccc(-n8ccnc8)n7)CC6)CC5)cc4)cccc3C2=O)C(=O)N1", "note": "[Example 17, (S)-3-(4-((4-((4-((1-(6-(1H-imidazol-1-yl)pyridin-2-yl)piperidin-4-yl)methyl)piperazin-1-yl)methyl)benzyl)oxy)-1-oxoisoindolin-2-yl)pyridin-2,6-dione]", "IC50": 100},
      {"smiles": "Cc1ncn(-c2cccc(N3CCN(Cc4ccc(Cc5ccc6c7c(cccc57)C(=O)N6[C@@H]5CCC(=O)NC5=O)cc4)CC3)n2)n1", "note": "[Example 38, (R)-3-(6-(4-((4-(6-(3-methyl-1H-1,2,4-triazol-1-yl)pyridin-2-yl)piperazin-1-yl)methyl)benzyl)-2-oxobenzo[cd]indol-1(2H)-yl)piperidin-2,6-dione]", "IC50": 30},
      {"smiles": "CC(C)n1cnnc1-c1cccc(N2CCN(Cc3ccc(Cc4ccc5c6c(cccc46)C(=O)N5C4CCC(=O)NC4=O)cc3)CC2)n1", "note": "(centres unmarked) [Example 24, 3-(6-(4-((4-(6-(4-isopropyl-4H-1,2,4-triazol-3-yl)pyridin-2-yl)piperazin-1-yl)methyl)benzyl)-2-oxobenzo[cd]indol-1(2H)-yl)piperidin-2,6-dione]", "IC50": 100},
      {"smiles": "O=C1CC[C@H](N2Cc3c(OCc4ccc(CN5CCN(c6ccnc(-c7cncs7)n6)CC5)cc4)cccc3C2=O)C(=O)N1", "note": "[Example 80, (S)-3-(1-oxo-4-((4-((4-(2-(thiazol-5-vi)pyrimidin-4-yl)piperazin-1-yl)methyl)benzyl)oxy)isoindolin-2-yl)piperidin-2,6-dione]", "IC50": 400},
      {"smiles": "O=C1CCC(N2C(=O)c3cccc4c(Cc5ccc(CN6CCN(c7ccnc(-n8cnc(C9CC9)c8)n7)CC6)cc5)ccc2c34)C(=O)N1", "note": "(centres unmarked) [Example 26, 3-(6-(4-((4-(2-(4-cyclopropvl-1H-imidazol-1-yl)pyrimidin-4-yl)piperazin-1-yl)methyl)benzyl)-2-oxobenzo[cd]indol-1(2H)-yl)piperidin-2,6-dione]", "IC50": 60},
      {"smiles": "O=C1CC[C@H](N2Cc3c(OCc4ccc(CN5CCN([C@H]6CC[C@H](NC(=O)c7ccnc(-n8ccnc8)n7)CC6)CC5)cc4)cccc3C2=O)C(=O)N1", "note": "[Example 15, N-((1R,4R)-4-(4-(4-(((2-((S)-2,6-dioxopiperidin-3-yl)-1-oxoisoindolin-4-yl)oxy)methyl)benzyl)piperazin-1-yl)cyclohexyl)-2-(1H-imidazol-1-yl)pyrimidin-4-carboxamide]", "IC50": 100}
    ]}
  ]
}
